Patent US20210238139A1, “MODULATORS OF TRYPTOPHAN CATABOLISM” (E-Therapeutics PLC, priority 2018, published 2021)

Tested on: SK-OV-3 cells
Assay: Effect of compounds on tryptophan catabolism in SK-OV-3 cell line (inhibition of kynurenine production, LC-MS/MS)
Assay type: cell-based
Details: Homo sapiens, SK-OV-3, 24 h, SK-OV-3 cell line, 24 h incubation, kynurenine in supernatant by LC-MS/MS; read-out: IC50 Ranges (ic50 values for inhibition of Kynurenine production)
Outline: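 Kynurenine in supernatants quantified by LC-MS/MS after 24 h compound exposure (37 °C; top 30 μM, eight 3-fold steps, duplicate) in DMEM F-12 containing 6 mg/mL L-tryptophan. Cells pre-plated overnight in McCoy's 5A with 10% FBS. Viability checked in parallel by ATP luminescence.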

Row | Structure (SMILES) | IC50 [nM]
1 | Cc1ccc(CN(C(=O)Nc2cccc(C#N)c2)C2CCCC2)o1 [Compound 93, 3-(3-cyanophenyl)-1-cyclopentyl-1-[(5-methyl-2-furyl)methyl]urea] | 1000 to 5000
2 | Cc1ccc(CN(C(=O)Nc2ccccc2C#N)C2CCCC2)o1 [Compound 95, 3-(2-cyanophenyl)-1-cyclopentyl-1-[(5-methyl-2-furyl)methyl]urea] | 1000 to 5000
3 | CC(=O)N1CCC(C)(CN(C(=O)Nc2ccccc2)C2CCCC2)CC1 [Compound 97, 1-[(1-acetyl-4-methyl-4-piperidyl)methyl]-1-cyclopentyl-3-phenyl-urea] | 1000 to 5000
4 | Cc1ccc(CN(C(=O)Nc2ccc(-c3cnn(C(C)(C)CO)c3)cc2)C2CCCC2)o1 [Compound 101, 1-cyclopentyl-3-[4-[1-(2-hydroxy-1,1-dimethyl-ethyl)pyrazol-4-yl]phenyl]-1-[(5-methyl-2-furyl)methyl]urea] | > 5000
5 | Cc1ccc(CN(C(=O)Nc2ccc(N3CCCC3=O)cc2)C2CCCC2)o1 [Compound 103, 1-cyclopentyl-1-[(5-methyl-2-furyl)methyl]-3-[4-(2-oxopyrrolidin-1-yl)phenyl]urea] | 1000 to 5000
6 | Cc1ccc(CN(C(=O)Nc2ccc(-c3cscn3)cc2)C2CCCC2)o1 [Compound 106, 1-cyclopentyl-1-[(5-methyl-2-furyl)methyl]-3-(4-thiazol-4-ylphenyl)urea] | 500 to 1000
7 | Cc1ccc(CN(C(=O)Nc2ccc(C#CC3CC3)cc2)C2CCCC2)o1 [Compound 107, 1-cyclopentyl-3-[4-(2-cyclopropylethynyl)phenyl]-1-[(5-methyl-2-furyl)methyl]urea] | < 100
8 | Cc1ccc(CN(C(=O)Nc2ccc(-c3cn[nH]c3)cc2)C2CCCC2)o1 [Compound 108, 1-cyclopentyl-1-[(5-methyl-2-furyl)methyl]-3-[4-(1H-pyrazol-4-yl)phenyl]urea] | 100 to 500
9 | Cc1ccc(CN(C(=O)Nc2ccc(C#CCN(C)C)cc2)C2CCCC2)o1 [Compound 112, 1-cyclopentyl-3-[4-[3-(dimethylamino)prop-1-ynyl]phenyl]-1-[(5-methyl-2-furyl)methyl]urea] | 500 to 1000
10 | CC1(CN(C(=O)Nc2ccc(F)cc2)C2CCCC2)CCN(S(C)(=O)=O)CC1 [Compound 113, 1-cyclopentyl-3-(4-fluorophenyl)-1-[(4-methyl-1-methylsulfonyl-4-piperidyl)methyl]urea] | 1000 to 5000
11 | N#Cc1cc(CN(C(=O)Nc2ccc(Cl)cc2)C2CCCC2)ccn1 [Compound 114, 3-(4-chlorophenyl)-1-[(2-cyano-4-pyridyl)methyl]-1-cyclopentyl-urea] | 100 to 500
12 | N#Cc1cncc(CN(C(=O)Nc2ccc(Cl)cc2)C2CCCC2)c1 [Compound 115, 3-(4-chlorophenyl)-1-[(5-cyano-3-pyridyl)methyl]-1-cyclopentyl-urea] | 100 to 500
13 | Cc1ccc(CN(C(=O)Nc2ccc(C(N)=O)cc2)C2CCCC2)o1 [Compound 117, 4-[[cyclopentyl-[(5-methyl-2-furyl)methyl]carbamoyl]-amino]benzamide] | 1000 to 5000
14 | Cc1ccc(CN(C(=O)Nc2ccc(C#N)nc2)C2CCCC2)o1 [Compound 124, 3-(6-cyano-3-pyridyl)-1-cyclopentyl-1-[(5-methyl-2-furyl)methyl]urea] | 100 to 500
15 | O=C(Nc1ccc(Cl)cc1)N(Cc1ccno1)C1CCCC1 [Compound 128, 3-(4-chlorophenyl)-1-cyclopentyl-1-(isoxazol-5-ylmethyl)urea] | 500 to 1000
16 | C#Cc1ccc(NC(=O)N(Cc2cc3ccccc3o2)C2CCCC2)cc1 [Compound 131, 1-(benzofuran-2-ylmethyl)-1-cyclopentyl-3-(4-ethynylphenyl)urea] | < 100
17 | Cc1ccc(CN(C(=O)Nc2nc3ccccc3s2)C2CCCC2)o1 [Compound 134, 3-(1,3-benzothiazol-2-yl)-1-cyclopentyl-1-[(5-methyl-2-furyl)methyl]urea] | 500 to 1000
18 | Cc1ccc(CN(C(=O)Nc2nc(C#N)cs2)C2CCCC2)o1 [Compound 135, 3-(4-cyanothiazol-2-yl)-1-cyclopentyl-1-[(5-methyl-2-furyl)methyl]urea] | 1000 to 5000
19 | Cc1ccc(CN(C(=O)Nc2ccccc2)C2CCN(C(=O)OC(C)(C)C)CC2)o1 [Compound 136, tert-butyl 4-[(5-methyl-2-furyl)methyl-(phenylcarbamoyl)amino]piperidine-1-carboxylate] | > 5000
20 | Cc1ncc(CN(C(=O)Nc2ccccc2)C2CCCC2)o1 [Compound 143, 1-cyclopentyl-1-[(2-methyloxazol-5-yl)methyl]-3-phenyl-urea] | 1000 to 5000
21 | Cc1ncc(CN(C(=O)Nc2ccc(F)cc2)C2CCCC2)o1 [Compound 145, 1-cyclopentyl-3-(4-fluorophenyl)-1-[(2-methyloxazol-5-yl)methyl]urea] | 1000 to 5000
22 | Cc1ccc(CN(C(=O)Nc2nnc(-c3cc4ccccc4o3)o2)C2CCCC2)o1 [Compound 151, 3-[5-(benzofuran-2-yl)-1,3,4-oxadiazol-2-yl]-1-cyclopentyl-1-[(5-methyl-2-furyl)methyl]urea] | 500 to 1000

More lines, now with the values ahead:

Row | IC50 [nM] | Structure (SMILES)
23 | 1000 to 5000 | CC(=O)c1ccc(NC(=O)N(Cc2ccc(C)o2)C2CCCC2)cc1 [Compound 94, 3-(4-acetylphenyl)-1-cyclopentyl-1-[(5-methyl-2-furyl)methyl]urea]
24 | > 5000 | Cc1ccc(CN(C(=O)NCc2ccc(C#N)cc2)C2CCCC2)o1 [Compound 96, 3-[(4-cyanophenyl)methyl]-1-cyclopentyl-1-[(5-methyl-2-furyl)methyl]urea]
25 | 500 to 1000 | Cc1ccc(CN(C(=O)Nc2ccc(-c3cnn(C(=O)OC(C)(C)C)c3)cc2)C2CCCC2)o1 [Compound 99, tert-butyl 4-[4-[[cyclopentyl-[(5-methyl-2-furyl)methyl]carbamoyl]amino]phenyl]pyrazole-1-carboxylate]
26 | > 5000 | Cc1ccc(CN(C(=O)Nc2ccc(-c3cnn(CCN(C)C)c3)cc2)C2CCCC2)o1 [Compound 100, 1-cyclopentyl-3-[4-[1-[2-(dimethylamino)ethyl]pyrazol-4-yl]phenyl]-1-[(5-methyl-2-furyl)methyl]urea]
27 | 100 to 500 | N#Cc1ccnc(CN(C(=O)Nc2ccc(Cl)cc2)C2CCCC2)c1 [Compound 116, 3-(4-chlorophenyl)-1-[(4-cyano-2-pyridyl)methyl]-1-cyclopentyl-urea]
28 | 1000 to 5000 | CC(C)(C)OC(=O)N1CCC(CN(C(=O)Nc2ccccc2)C2CCCC2)CC1 [Compound 118, tert-butyl 4-[[cyclopentyl(phenylcarbamoyl)amino]methyl]piperidine-1-carboxylate]
29 | 500 to 1000 | CC(C)(C)OC(=O)N1CCC(CN(C(=O)Nc2ccc(F)cc2)C2CCCC2)CC1 [Compound 119, tert-butyl 4-[[cyclopentyl-[(4-fluorophenyl)carbamoyl]amino]methyl]piperidine-1-carboxylate]
30 | 100 to 500 | CC(C)(C)OC(=O)N1CCC(CN(C(=O)Nc2ccc(Cl)cc2)C2CCCC2)CC1 [Compound 120, tert-butyl 4-[[(4-chlorophenyl)carbamoyl-cyclopentyl-amino]methyl]piperidine-1-carboxylate]
31 | 500 to 1000 | Cc1ccc(CN(C(=O)Nc2ccc(C#N)cn2)C2CCCC2)o1 [Compound 121, 3-(5-cyano-2-pyridyl)-1-cyclopentyl-1-[(5-methyl-2-furyl)methyl]urea]
32 | 1000 to 5000 | NC(=O)c1cc(CN(C(=O)Nc2ccc(F)cc2)C2CCCC2)ccc1F [Compound 122, 5-[[cyclopentyl-[(4-fluorophenyl)carbamoyl]amino]methyl]-2-fluoro-benzamide]
33 | 1000 to 5000 | N#Cc1cccc(CN(C(=O)Nc2ccccc2)C2CCCC2)n1 [Compound 125, 1-[(6-cyano-2-pyridyl)methyl]-1-cyclopentyl-3-phenyl-urea]
34 | 500 to 1000 | N#Cc1cccc(CN(C(=O)Nc2ccc(F)cc2)C2CCCC2)n1 [Compound 126, 1-[(6-cyano-2-pyridyl)methyl]-1-cyclopentyl-3-(4-fluorophenyl)urea]
35 | > 5000 | O=C(Nc1ccc(F)cc1)N(Cc1ccno1)C1CCCC1 [Compound 127, 1-cyclopentyl-3-(4-fluorophenyl)-1-(isoxazol-5-ylmethyl)urea]
36 | 1000 to 5000 | Cc1ccc(CN(C(=O)Nc2nc(-c3ccccc3)cs2)C2CCCC2)o1 [Compound 129, 1-cyclopentyl-1-[(5-methyl-2-furyl)methyl]-3-(4-phenylthiazol-2-yl)urea]
37 | 100 to 500 | N#Cc1ccc(NC(=O)N(Cc2cc3ccccc3o2)C2CCCC2)cc1 [Compound 132, 1-(benzofuran-2-ylmethyl)-3-(4-cyanophenyl)-1-cyclopentyl-urea]
38 | 100 to 500 | Cc1ccc(CN(C(=O)Nc2nc(-c3ccccn3)cs2)C2CCCC2)o1 [Compound 133, 1-cyclopentyl-1-[(5-methyl-2-furyl)methyl]-3-[4-(2-pyridyl)thiazol-2-yl]urea]
39 | 1000 to 5000 | Cc1ccc(CN(C(=O)Nc2ccccc2)C(C)C)o1 [Compound 138, 1-isopropyl-1-[(5-methyl-2-furyl)methyl]-3-phenyl-urea]
40 | 1000 to 5000 | O=C(Nc1ccc(F)c(F)c1)N(Cc1cccc(OC(F)(F)F)c1)C1CCCC1 [Compound 142, 1-cyclopentyl-3-(3,4-difluorophenyl)-1-[[3 (trifluoromethoxy)phenyl]methyl]urea]
41 | 500 to 1000 | O=C(Nc1ccc(Cl)cc1)N(Cc1ccon1)C1CCCC1 [Compound 149, 3-(4-chlorophenyl)-1-cyclopentyl-1-(isoxazol-3-ylmethyl)urea]
42 | 100 to 500 | Cc1ccc(CN(C(=O)Nc2ccc(-c3ccccc3)cc2)C2CCCC2)o1 [Compound 150, 1-cyclopentyl-1-[(5-methyl-2-furyl)methyl]-3-(4-phenylphenyl)urea]
43 | 100 to 500 | N#Cc1ccc(NC(=O)N(Cc2ccnc(C(F)(F)F)c2)C2CCC2)cc1 [Compound 152, 3-(4-cyanophenyl)-1-cyclobutyl-1-[[2-(trifluoromethyl)-4-pyridyl]methyl]urea]
